Experimental data: patent US10870713B2, “Procatalyst and polymerization process using the same” (Dow Global Technologies LLC, priority 2015, dated 2020)

Tests used:
[1] = Batch polymerization of ethylene and 1-octene in a Parr reactor (catalyst efficiency); conditions: reactor 147° C.; ISOPAR-E 1320 g; 1-octene 250 g; ethylene 410 psi; 10 min; procatalyst:activator 1:1.2; procatalyst:MMAO 1:50
Text: The procatalysts shown above were used to polymerize ethylene and 1-octene in a Parr batch polymerization reactor. All feeds were passed through columns of alumina and Q-5 catalyst (available from Engelhard Chemicals Inc.) prior to introduction into the polymerization reactor. Procatalyst and activator solutions were handled in a glove box under nitrogen atmosphere prior to addition to the polymerization reactor.
Table 2 illustrates the batch polymerizations results for each of C1 and 11-12 under the following conditions: reactor temperature: 147° C.; ISOPAR-E: 1320 g; 1-octene: 250 g; ethylene pressure: 410 psi; Run time: 10 min; procatalyst to activator ratio is 1:1.2; activator=[HNMe(C18H37)2][B(C6F5)4]; procatalyst to MMAO ratio is 1:50; […]
The catalyst efficiency is calculated by dividing the number of grams of the polyolefin copolymer prepared by the total number of grams of metal M of ingredient (a) employed (i.e., metal M of the at least one metal-ligand complex of formula (I)) (i.e., catalyst efficiency=g polyolefin copolymer prepared/g metal M of metal-ligand complex(es) of formula (I) employed).

[2] = Solubility testing of procatalysts in aliphatic hydrocarbon solvents; assay type: physicochemical
Description: Hexanes (10 mL) was added to this material and the solution was allowed to settle overnight. 5.03 grams of the clear supernatant hexanes was removed from the vial, then the hexanes was removed from this clear solution to leave behind 205 mg of product.
Hexanes (10 mL) was added to this material and the solution was allowed to settle overnight. 5.1 grams of the clear supernatant hexanes was removed from the vial, then the hexanes was removed from this clear solution to leave behind 140 mg of product.
About 950 mg of pre-catalyst used. Added ISOPAR-E (40 mL). Swirled solution then allowed insoluble material to settle to the bottom of the jar overnight. Removed 5.06 grams of ISOPAR-E solution into a vial. Solvent was removed and 120 mg of pre-catalyst was obtained.
To 72.3 mg of the solid in a vial was added 0.9 mL of ISOPAR E. The solution was stirred for about 1 h. The mixture was filtered and the solution was weighted (0.2934 g).
A 20-mL vial was charged with 82.0 mg of the Hf-complex and 0.8 mL of ISOPAR E. The mixture was stirred for 2 h and it was filtered via syringe filter. The colorless solution was weight and then concentrated under vacuum for 3 h. The white solid was weight to obtained 0.0217 g for a 6.2 w/w % solubility.
To the solid was added 0.2198 g of ISOPAR E and stirred for 1 hour. The solid completely dissolved to indicate a 9.5 wt % solubility in ISOPAR E.
To the Hf-complex was added 4 mL of hexane, and the solution was stirred for 4 hours. The solution was filtered via syringe to provide a weight of 2.0638 g. This solution was concentrated under vacuum to afford 0.3228 g of the solid 17 indicative of a 15.6 wt % solubility in hexanes. […]
Solubility was determined by either first forming a saturated solution of the procatalyst in one or more of the solvents as shown in Table 1. […] A portion of the clear supernatant is removed, and the mass is recorded. […] The mass of the resulting procatalyst that was in solution is recorded, allowing for calculation of a w/w % solubility in the indicated solvent. […]

Cc1cc2c(c(-n3c4ccccc4c4ccccc43)c1)[O][Hf-2]13([CH3])([CH3])[O]c4c(cc(C)cc4-n4c5ccccc5c5ccccc54)-c4ccccc4[O+]1C[C@@H]1CCCCC1C[O+]3c1ccccc1-2 (stereo partly shown) [Procatalyst C1]
Efficiency [1]: 826,377 g polyolefin copolymer prepared/g metal M | wt/wt % Solubility, ISOPAR-E ([2]; solvent ISOPAR-E): 1.2 wt/wt % | wt/wt % Solubility, Hexanes ([2]; solvent hexanes): 0.5 wt/wt % | wt/wt % Solubility, Methylcyclohexane ([2]; solvent methylcyclohexane): 1.7 wt/wt %
